The term IC50 denotes the point on the concentration scale where inhibition reaches its midpoint. The melting point is the temperature, or range, at which the solid turns liquid.

Data set [1] concerns the target T1, LFA-1 binding to immobilized ICAM-1 (Homo sapiens, UniProt P05107+P20701).
T1 construct: made in house; host or cells: transfected 293 cells (LFA-1)
In words: LFA-1/ICAM-1 Protein-Protein Assay (solid-phase ELISA). Particulars: 5dICAM-Ig coated plates; membrane-bound LFA-1 from transfected 293 cells. The method, then:
LFA-1/ICAM-1 Protein-Protein Assay
LFA-1/ICAM-1 antagonist activity, defined as the ability to block LFA-1 binding to immobilized ICAM-1, was quantitated using a solid-phase ELISA. Typically, fusion protein consisting of the entire extracellular domain of human ICAM-1 and the Fc domain of human IgG (5dICAM-Ig) was coated onto 96-well microtiter plates (0.15 μg in 100 μL PBS) overnight at 4° C. The plates were then blocked with 150 μL of 1% BSA/1 mM MnCl2/0.14 M NaCl/20 mM HEPES, pH 7.2 for 1 h at 37° C. and washed 3 times (150 μL each) with Wash Buffer (50 mM Tris, pH 7.4/100 mM NaCl/1 mM MnCl2/0.05% Tween 20). Stock solutions (100 μM in 100% DMSO) of test compounds were diluted 50 fold with 150 μL of Binding Buffer (0.05% BSA/0.05% Tween 20/1 mM MnCl2/0.14 M NaCl/20 mM HEPES, pH 7.2) plus 10% DMSO. A series of 1:4 dilutions were performed to achieve a concentration range of 0.12 nM-2 μM. Fifty μL per well of each dilution was added to the ICAM-1 coated plates, followed by 50 μL per well of membrane-bound LFA-1 (280 ng/mL in Binding Buffer) derived from transfected 293 cells. The plates were shaken vigorously for 1 min (room temperature) and gently for 2 h (37° C.). After incubation, the plates were washed 3 times (150 μL each) with Wash Buffer. Mouse anti-human integrin β2 monoclonal antibody was added (100 μL/well, 1 μg/ml in Binding Buffer) and allowed to incubate for 1 h (37° C.) with gentle agitation. The plates were then washed 3 times with Wash Buffer. HRP-conjugated goat anti-mouse IgG (100 μL/well, 1:1500 dilution in Binding Buffer) was added to each well, followed by incubation for 1 h (37° C.) and concluded by three washes (150 μL each) with Wash Buffer. TMB solution (100 μL per well) was added for color development (10 min). The reaction was stopped by the addition of 100 μL of 1M H3PO4 to each well. The plates were then read at 450 nm.

The subject of data set [2] is T lymphocyte proliferation (murine spleen cells). In words: Mixed Lymphocyte Reaction (MLR), one-way. The class given is cell-based, mice. Particulars: Mus musculus, T-lymphocyte, light or radiation study, 72 h, C57B1/6 spleen cells with irradiated BALB/c spleen cells; tritiated thymidine incorporation, 3 days. The text has this:
Mixed Lymphocyte Reaction (MLR)
Admixture of murine spleen cells from two different inbred strains of mice induces proliferation of T lymphocytes. The magnitude of T cell proliferation depends on the extent of disparity in the major histocompatibility antigens between the two strains. Splenic T lymphocytes from both strains proliferate due to alloantigen recognition, a process for which the interaction of ICAM-1 on antigen-presenting cells with LFA-1 on lymphocytes is necessary. The ability of antagonists to inhibit T lymphocyte proliferation following recognition of alloantigens was assessed in a one-way MLR, where cells from one strain were irradiated to permit measurement of the proliferative response of cells from the other strain. Spleen cells were washed three times in tissue culture medium (TCM; see below). Fifty microliters of a spleen cell suspension (prepared at 10×10^6 cells/ml in TCM) obtained from C57B1/6 mice were added to an equal number of lethally-irradiated (2000 rads) spleen cells obtained from BALB/c mice in a 96-well U-bottom tissue culture plate (Costar, 3799). One hundred microliters of serial dilutions of antagonists or TCM were added to the spleen cell mixture. The total volume in each well was 200 μL. TCM was RPMI1640 containing 10% heat-inactivated fetal bovine serum, […] L-glutamine, 100 Units/ml each of penicillin and streptomycin and 5×10^−5 M 2-mercaptoethanol. Dilutions of antagonists were prepared in TCM. Plates were incubated in 5% CO2 for 3 days. On the third day, 0.5 μCi of tritiated thymidine (10 μCi/mL) was added to all the wells. Cells were harvested 6 h later on a 96-well plate harvester and the amount of tritiated thymidine incorporated was assessed in a liquid scintillation counter.

T1 sequence (P20701 26-1170): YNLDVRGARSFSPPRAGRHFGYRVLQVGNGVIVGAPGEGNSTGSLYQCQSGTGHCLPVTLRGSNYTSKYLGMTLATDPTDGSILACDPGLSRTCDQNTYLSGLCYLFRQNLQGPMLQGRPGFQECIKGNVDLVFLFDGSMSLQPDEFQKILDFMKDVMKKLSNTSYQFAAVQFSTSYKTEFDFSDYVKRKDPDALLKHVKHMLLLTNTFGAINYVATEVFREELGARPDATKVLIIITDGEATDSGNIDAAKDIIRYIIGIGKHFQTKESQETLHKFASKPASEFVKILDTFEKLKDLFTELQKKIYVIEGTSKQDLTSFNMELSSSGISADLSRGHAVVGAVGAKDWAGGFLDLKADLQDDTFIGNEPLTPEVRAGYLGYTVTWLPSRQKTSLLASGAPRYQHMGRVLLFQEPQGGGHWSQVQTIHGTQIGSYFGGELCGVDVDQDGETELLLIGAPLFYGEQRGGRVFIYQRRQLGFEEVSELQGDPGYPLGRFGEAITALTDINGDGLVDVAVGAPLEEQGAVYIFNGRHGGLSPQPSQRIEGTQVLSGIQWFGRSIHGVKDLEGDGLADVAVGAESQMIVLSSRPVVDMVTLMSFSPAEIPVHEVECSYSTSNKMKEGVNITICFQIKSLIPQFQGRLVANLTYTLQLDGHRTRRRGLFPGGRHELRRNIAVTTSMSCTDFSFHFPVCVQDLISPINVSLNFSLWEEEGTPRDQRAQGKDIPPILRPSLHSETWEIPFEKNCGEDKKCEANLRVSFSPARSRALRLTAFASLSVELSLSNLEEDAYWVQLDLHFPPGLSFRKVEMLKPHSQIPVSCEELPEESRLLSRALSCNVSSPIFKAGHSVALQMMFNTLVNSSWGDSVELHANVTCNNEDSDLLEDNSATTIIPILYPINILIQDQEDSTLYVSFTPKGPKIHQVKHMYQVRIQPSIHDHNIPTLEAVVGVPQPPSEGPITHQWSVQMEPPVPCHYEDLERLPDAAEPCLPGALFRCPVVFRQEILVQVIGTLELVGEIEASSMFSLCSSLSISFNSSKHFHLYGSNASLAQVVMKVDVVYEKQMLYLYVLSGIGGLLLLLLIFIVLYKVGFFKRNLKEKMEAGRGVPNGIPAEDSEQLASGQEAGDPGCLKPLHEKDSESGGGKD
T1 sequence (P05107 23-769): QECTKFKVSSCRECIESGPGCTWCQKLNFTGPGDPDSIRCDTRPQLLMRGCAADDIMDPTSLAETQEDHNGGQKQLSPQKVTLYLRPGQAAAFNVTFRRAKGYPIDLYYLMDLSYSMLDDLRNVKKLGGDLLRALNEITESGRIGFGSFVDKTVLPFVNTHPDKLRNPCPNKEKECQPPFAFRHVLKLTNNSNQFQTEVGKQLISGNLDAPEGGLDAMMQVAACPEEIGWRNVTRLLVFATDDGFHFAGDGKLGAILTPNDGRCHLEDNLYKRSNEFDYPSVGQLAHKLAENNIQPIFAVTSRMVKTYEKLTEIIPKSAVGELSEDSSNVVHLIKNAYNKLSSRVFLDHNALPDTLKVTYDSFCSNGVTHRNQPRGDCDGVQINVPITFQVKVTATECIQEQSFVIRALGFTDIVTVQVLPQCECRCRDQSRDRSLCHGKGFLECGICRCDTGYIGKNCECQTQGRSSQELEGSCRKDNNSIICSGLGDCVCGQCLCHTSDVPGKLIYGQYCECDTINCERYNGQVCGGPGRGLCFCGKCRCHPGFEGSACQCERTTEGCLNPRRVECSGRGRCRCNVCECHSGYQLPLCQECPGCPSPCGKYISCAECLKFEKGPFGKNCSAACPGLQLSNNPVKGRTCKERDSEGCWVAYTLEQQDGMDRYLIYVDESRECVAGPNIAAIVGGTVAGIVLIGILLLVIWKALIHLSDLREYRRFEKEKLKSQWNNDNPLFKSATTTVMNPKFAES

`CCc1nc(C)c(/C=C(\NC(=O)c2ccc(C(=O)NCc3cccc(O)c3)cc2Cl)C(=O)O)s1` [Example 304, (Z)-2-[[2-Chloro-4-[[(3-hydroxybenzyl)amino]carbonyl]benzoyl]amino]-3-(2-ethyl-4-methylthiazole-5-yl)propenoic Acid] showed a melting point greater than 200 °C. Further, in data set [1], the IC50 worked out at 3 nM. For the same molecule, the IC50 in data set [2] was 2100 nM.
For `Cc1cc(C(=O)NCc2cccc(O)c2)ccc1C(=O)N/C(=C\c1cnc2ccccc2c1)C(=O)O` [Example 312], the values for the 50% inhibitory concentration (IC50) in data set [1] and in data set [2] were 4.7 nM and 990 nM, respectively.
On the same counts, the results for `Cc1cc(C(=O)NCc2cccc(O)c2)cc(Cl)c1C(=O)N/C(=C\c1cnc2ccccc2c1)C(=O)O` [Example 292, (Z)-2-[[2-Chloro-4-[[(3-hydroxybenzyl)amino]carbonyl]-6-methylbenzoyl]amino]-3-(quinolin-3-yl)propenoic Acid] are 0.54 nM and 925 nM.
Regarding `Nc1ncc(/C=C(\NC(=O)c2ccc(C(=O)NCc3cccc(O)c3)cc2Cl)C(=O)O)s1` [Example 287], the values for the half-maximal inhibitory concentration (IC50) in data set [1] and in data set [2] were 0.65 nM and 1400 nM, respectively.
On the same counts, the results for `Cc1nc(/C=C(\NC(=O)c2ccc(C(=O)NCc3cccc(O)c3)cc2Br)C(=O)O)cs1` [Example 235, (Z)-2-[[2-Bromo-4-[[(3-hydroxybenzyl)amino]carbonyl]benzoyl]amino]-3-(2-methylthiazol-4-yl)propenoic Acid] are 42.9 nM and 13500 nM.
On the same counts, the results for `Cc1nc(C)c(/C=C(\NC(=O)c2ccc(C(=O)NCc3cccc(N)c3)cc2Br)C(=O)O)s1` [Example 321] are 7.52 nM and 11500 nM.
On the same counts, the results for `Cn1ccc2ccc(/C=C(\NC(=O)c3ccc(C(=O)NCc4cccc(O)c4)cc3Cl)C(=O)O)cc21` [Example 305] are 4.13 nM and 7250 nM.
Turning to `Cc1nc(C)c(/C=C(\NC(=O)c2ccc(C(=O)NCc3cccc4[nH]ccc34)cc2Br)C(=O)O)s1` [Example 249], the half-inhibitory concentration (IC50) amounted to 5.78 nM in data set [1] and 16000 nM in data set [2].
On the same counts, the results for `O=C(O)/C(=C/c1ccc2ccccc2c1)NC(=O)c1ccc(C(=O)NCc2cccc(O)c2)cc1Br` [Example 274] are 0.62 nM and 1650 nM.
With `O=C(O)/C(=C/c1ccccc1)NC(=O)c1ccc(C(=O)NCc2cccc(O)c2)cc1Cl` [Example 282], the results for the concentration for half-maximal inhibition (IC50) in data set [1] and in data set [2] were 4.46 nM and 1900 nM, respectively.
On the same counts, the results for `O=C(O)/C(=C/c1cnc2ccccc2c1)NC(=O)c1ccc(C(=O)CCc2cccc(O)c2)cc1Cl` [Example 294, (Z)-2-[[2-Chloro-4-[3-(3-hydroxyphenyl)-1-oxopropan-1-yl]benzoyl]amino]-3-(quinolin-3-yl)propenoic Acid] are 2.38 nM and 13000 nM.
On the same counts, the results for `CC(C)c1ncsc1/C=C(\NC(=O)c1ccc(C(=O)NCc2cccc(O)c2)cc1Cl)C(=O)O` [Example 300, (Z)-2-[[2-Chloro-4-[[(3-hydroxybenzyl)amino]carbonyl]benzoyl]amino]-3-[4-(1-methylethyl)thiazol-5-yl]propenoic Acid] are 32.5 nM and 21500 nM.
In the case of `O=C(O)/C(=C/c1cnc2ccccc2c1)NC(=O)c1ccc(C(O)/C=C/c2cccc(O)c2)cc1Cl` (racemic) [Example 298, rac.-(Z)-2-[[2-Chloro-4-[(E)-1-hydroxy-3-(3-hydroxyphenyl)prop-2-en-1-yl]benzoyl]amino]-3-(quinolin-3-yl)propenoic Acid], the half-inhibitory concentration (IC50) in data set [1] is 4.26 nM; in data set [2], 6200 nM.
On to `Cc1nc(C)c(/C=C(\NC(=O)c2c(C)cc(C(=O)NCc3cc(F)cc(F)c3)cc2C)C(=O)O)s1` [Example 254], for which the values for the concentration for half-maximal inhibition (IC50) in data set [1] and in data set [2] were 110 nM and 95000 nM, respectively.
As for `O=C(O)/C(=C/c1ccc2ccccc2c1)NC(=O)c1ccc(C(=O)NCc2cccc3[nH]ccc23)cc1Cl` [Example 307], the concentration for half-maximal inhibition (IC50) in data set [1] is 18.6 nM; in data set [2], 27000 nM.
For the molecule `Cc1nc(C)c(/C=C(\NC(=O)c2ccc(C(=O)NCc3cccc(O)c3)cc2Cl)C(=O)O)s1` [Example 244], the IC50 in data set [1] was determined as 1.95 nM; in data set [2], 3000 nM.
On the same counts, the results for `Cc1nc(C(C)C)sc1/C=C(\NC(=O)c1ccc(C(=O)NCc2cccc(O)c2)cc1Cl)C(=O)O` [Example 301, 2-[[2-Chloro-4-[[(3-hydroxybenzyl)amino]carbonyl]benzoyl]amino]-3-[2-(1-methylethyl)-4-methylthiazol-5-yl]propenoic Acid] are 3.03 nM and 4250 nM.
Take `O=C(O)/C(=C/c1cnc2ccccc2c1)NC(=O)c1ccc(C(O)CCc2cccc(O)c2)cc1Cl` (racemic) [Example 296, rac.-(Z)-2-[[2-Chloro-4-[1-hydroxy-3-(3-hydroxyphenyl)propan-1-yl]benzoyl]amino]-3-(quinolin-3-yl)propenoic Acid]: the results for the IC50 in data set [1] and in data set [2] were 1.56 nM and 2400 nM, respectively.
Take `O=C(O)/C(=C/c1ccccc1O)NC(=O)c1ccc(C(=O)NCc2cccc(O)c2)cc1Br` [Example 272]: the IC50 in data set [1] turned out to be 1.4 nM; in data set [2], 1500 nM.
On the same counts, the results for `Cc1cc(C(=O)N[C@H](C)c2cccc3ccccc23)cc(C)c1C(=O)N/C(=C\c1[nH]cnc1C)C(=O)O` [Example 240] are 4.78 nM and 3470 nM.
On the same counts, the results for `O=C(O)/C(=C/c1ccccc1O)NC(=O)c1ccc(C(=O)NCc2cccc3[nH]ccc23)cc1Cl` [Example 309] are 18.7 nM and 14500 nM.
On the same counts, the results for `O=C(O)/C(=C/c1cnc2ccccc2c1)NC(=O)c1ccc(C(=O)NCc2cccc(O)c2)cc1Cl` [Example 283] are 0.79 nM and 370 nM.
In the case of `Nc1cccc(CNC(=O)c2ccc(C(=O)N/C(=C\c3cnc4ccccc4c3)C(=O)O)c(Br)c2)c1` [Example 322], the results for the IC50 in data set [1] and in data set [2] were 1.74 nM and 4450 nM, respectively.

The record behind these values is patent US6515124B2, “Dehydroamino acids” (Hoffman-La Roche Inc., priority 2000, dated 2003).
